How the values were obtained:
bedstraw = assay: Test B pre/postemergence bedstraw; type: in vivo, Galium aparine; conditions: Preemergence
Method in brief: (§1)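 Response is a visual 0-to-10 score relative to untreated plants, where 0 means no effect and 10 means complete control, taken twelve to sixteen days after application. Treatments went onto soil at planting and onto foliage of 1- to 4-leaf plants, using a surfactant-containing non-phytotoxic solvent.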

blackgrass = assay: Test B pre/postemergence blackgrass; type: in vivo, Alopecurus myosuroides
Method in brief: as §1

surinam grass = assay: Test B pre/postemergence surinam grass; type: in vivo, Brachiaria decumbens
Method in brief: as §1

cocklebur = assay: Test B pre/postemergence cocklebur; type: in vivo, Xanthium strumarium
Method in brief: as §1

corn = assay: Test B pre/postemergence corn; type: in vivo, Zea mays
Method in brief: as §1

crabgrass = assay: Test B pre/postemergence crabgrass; type: in vivo, Digitaria sanguinalis
Method in brief: as §1

giant foxtail = assay: Test B pre/postemergence giant foxtail; type: in vivo, Setaria faberii
Method in brief: as §1

morningglory = assay: Test B pre/postemergence morningglory; type: in vivo, Ipomoea hederacea
Method in brief: as §1

pigweed = assay: Test B pre/postemergence pigweed; type: in vivo, Amaranthus retroflexus
Method in brief: as §1

rape = assay: Test B pre/postemergence rape; type: in vivo, Brassica napus
Method in brief: as §1

soybean = assay: Test B pre/postemergence soybean; type: in vivo, Glycine max
Method in brief: as §1

sugar beet = assay: Test B pre/postemergence sugar beet; type: in vivo, Beta vulgaris
Method in brief: as §1

velvetleaf = assay: Test B pre/postemergence velvetleaf; type: in vivo, Abutilon theophrasti
Method in brief: as §1

wheat = assay: Test B pre/postemergence wheat; type: in vivo, Triticum aestivum
Method in brief: as §1

wild oat = assay: Test B pre/postemergence wild oat; type: in vivo, Avena fatua
Method in brief: as §1

purple nutsedge = assay: Test B pre/postemergence purple nutsedge; type: in vivo, Cyperus rotundus
Method in brief: as §1

[1] = Postemergence, Rate 62 g/ha, scale 0 to 10, 0 is no effect, 10 is complete control
[2] = Postemergence, Rate 125 g/ha, scale of 0 to 10 where 0 is no effect and 10 is complete control
[3] = Preemergence, Rate 125 g/ha, scale of 0 to 10 where 0 is no effect and 10 is complete control
[4] = Preemergence, Rate 250 g/ha, scale 0 (no effect) to 10 (complete control)
[5] = Rate 62 g/ha, Preemergence, scale 0 to 10
[6] = Rate 250 g/ha, Postemergence, scale 0 to 10, 0 is no effect, 10 is complete control
[7] = Rate 500 g/ha, Postemergence, scale 0 to 10, 0 is no effect, 10 is complete control
[8] = Rate 500 g/ha, Preemergence, scale 0 to 10 (0 no effect, 10 complete control)

C#CCCn1c(=O)on(C(=O)N(c2ccc(F)cc2F)C(C)C)c1=O [Compound 744]
4: Crabgrass plant response rating (crabgrass; [2]) | Morningglory plant response rating (morningglory; [7]) | Redroot pigweed plant response rating (pigweed; [5]) | Rape plant response rating (rape; [5]) | Soybean plant response rating (soybean; [6])
0: Plant response rating, Bedstraw (bedstraw; Rate 125 g/ha, scale of 0 to 10 where 0 is no effect and 10 is complete control) | Bedstraw plant response rating (bedstraw; Rate 250 g/ha, scale 0 (no effect) to 10 (complete control)) | Bedstraw plant response rating (bedstraw; Rate 62 g/ha, scale 0 to 10) | Plant response rating, B. signalgrass (surinam grass; [1]) | Plant response rating, Cocklebur (cocklebur; [1]) | Cocklebur plant response rating (cocklebur; [2]) | Plant response rating, Cocklebur (cocklebur; [3]) | Cocklebur plant response rating (cocklebur; [4]) | Cocklebur plant response rating (cocklebur; [5]) | Cocklebur plant response rating (cocklebur; [6]) | Cocklebur plant response rating (cocklebur; [7]) | Cocklebur plant response rating (cocklebur; [8]) | Plant response rating, Corn (corn; [1]) | Corn plant response rating (corn; [2]) | Plant response rating, Corn (corn; [3]) | Corn plant response rating (corn; [5]) | Plant response rating, Morningglory (morningglory; [3]) | Morningglory plant response rating (morningglory; [4]) | Morningglory plant response rating (morningglory; [5]) | Morningglory plant response rating (morningglory; [8]) | Plant response rating, Redroot pigweed (pigweed; [1]) | Redroot pigweed plant response rating (pigweed; [2]) | Redroot pigweed plant response rating (pigweed; [6]) | Plant response rating, Rape (rape; [1]) | Plant response rating, Soybean (soybean; [3]) | Soybean plant response rating (soybean; [4]) | Soybean plant response rating (soybean; [5]) | Soybean plant response rating (soybean; [8]) | Plant response rating, Sugarbeets (sugar beet; [1]) | Sugarbeets plant response rating (sugar beet; [2]) | Sugarbeets plant response rating (sugar beet; [5]) | Sugarbeets plant response rating (sugar beet; [6]) | Plant response rating, Velvetleaf (velvetleaf; [1]) | Velvetleaf plant response rating (velvetleaf; [2]) | Plant response rating, Velvetleaf (velvetleaf; [3]) | Velvetleaf plant response rating (velvetleaf; [4]) | Velvetleaf plant response rating (velvetleaf; [5]) | Velvetleaf plant response rating (velvetleaf; [6]) | Plant response rating, Wheat (wheat; [1]) | Wheat plant response rating (wheat; [2]) | Plant response rating, Wheat (wheat; [3]) | Wheat plant response rating (wheat; [5]) | Plant response rating, Wild oats (wild oat; [1]) | Wild oats plant response rating (wild oat; [2]) | Wild oats plant response rating (wild oat; [6]) | Plant response rating, Nutsedge (purple nutsedge; [1]) | Plant response rating, Nutsedge (purple nutsedge; [3])
10: Crabgrass plant response rating (crabgrass; [8]) | Giant foxtail plant response rating (giant foxtail; [8])
5: Plant response rating, Blackgrass (blackgrass; [1]) | Blackgrass plant response rating (blackgrass; [2]) | Blackgrass plant response rating (blackgrass; [6]) | Blackgrass plant response rating (blackgrass; [7]) | B. signalgrass plant response rating (surinam grass; Preemergence, Rate 62 g/ha, scale of 0 to 10 where 0 is no effect and 10 is complete control) | B. signalgrass plant response rating (surinam grass; [6]) | Corn plant response rating (corn; [4]) | Corn plant response rating (corn; [7]) | Soybean plant response rating (soybean; [7]) | Sugarbeets plant response rating (sugar beet; [7]) | Wheat plant response rating (wheat; [6]) | Wheat plant response rating (wheat; [8]) | Nutsedge plant response rating (purple nutsedge; [4])
3: Corn plant response rating (corn; [6]) | Plant response rating, Crabgrass (crabgrass; [1]) | Rape plant response rating (rape; [6]) | Soybean plant response rating (soybean; [2]) | Wheat plant response rating (wheat; [4]) | Wild oats plant response rating (wild oat; [5]) | Nutsedge plant response rating (purple nutsedge; [6])
8: Bedstraw plant response rating (bedstraw; Rate 500 g/ha, scale 0 to 10 (0 no effect, 10 complete control)) | Plant response rating, B. signalgrass (surinam grass; [3]) | Crabgrass plant response rating (crabgrass; [6]) | Giant foxtail plant response rating (giant foxtail; [2]) | Giant foxtail plant response rating (giant foxtail; [6]) | Giant foxtail plant response rating (giant foxtail; [7]) | Plant response rating, Redroot pigweed (pigweed; [3]) | Redroot pigweed plant response rating (pigweed; [7]) | Rape plant response rating (rape; [7]) | Plant response rating, Wild oats (wild oat; [3])
9: Plant response rating, Blackgrass (blackgrass; [3]) | Blackgrass plant response rating (blackgrass; [4]) | Blackgrass plant response rating (blackgrass; [8]) | B. signalgrass plant response rating (surinam grass; [4]) | B. signalgrass plant response rating (surinam grass; [8]) | Plant response rating, Crabgrass (crabgrass; [3]) | Crabgrass plant response rating (crabgrass; [4]) | Crabgrass plant response rating (crabgrass; [5]) | Crabgrass plant response rating (crabgrass; [7]) | Plant response rating, Giant foxtail (giant foxtail; [3]) | Giant foxtail plant response rating (giant foxtail; [4]) | Giant foxtail plant response rating (giant foxtail; [5]) | Redroot pigweed plant response rating (pigweed; [4]) | Redroot pigweed plant response rating (pigweed; [8]) | Rape plant response rating (rape; [8]) | Wild oats plant response rating (wild oat; [4]) | Wild oats plant response rating (wild oat; [8])
6: Blackgrass plant response rating (blackgrass; [5]) | B. signalgrass plant response rating (surinam grass; [7]) | Plant response rating, Giant foxtail (giant foxtail; [1]) | Plant response rating, Rape (rape; [3]) | Rape plant response rating (rape; [4]) | Nutsedge plant response rating (purple nutsedge; [7])
7: Corn plant response rating (corn; [8]) | Sugarbeets plant response rating (sugar beet; [4]) | Sugarbeets plant response rating (sugar beet; [8]) | Wheat plant response rating (wheat; [7]) | Nutsedge plant response rating (purple nutsedge; [8])
2: B. signalgrass plant response rating (surinam grass; [2]) | Plant response rating, Morningglory (morningglory; [1]) | Morningglory plant response rating (morningglory; [2]) | Morningglory plant response rating (morningglory; [6]) | Rape plant response rating (rape; [2]) | Plant response rating, Soybean (soybean; [1]) | Plant response rating, Sugarbeets (sugar beet; [3]) | Velvetleaf plant response rating (velvetleaf; [7]) | Velvetleaf plant response rating (velvetleaf; [8]) | Wild oats plant response rating (wild oat; [7])
